Laboratory results from ChEMBL document CHEMBL5291721, “A preclinical secondary pharmacology resource illuminates target-adverse drug reaction associations of marketed drugs” (Nat Commun, 2023).

Columns and labels:
[1] = biological target: Beta-2 adrenergic receptor (Homo sapiens, UniProt P07550)
[2] = biological target: T1, Type-1 angiotensin II receptor (Homo sapiens, UniProt P30556)
T1 sequence (P30556 whole entry): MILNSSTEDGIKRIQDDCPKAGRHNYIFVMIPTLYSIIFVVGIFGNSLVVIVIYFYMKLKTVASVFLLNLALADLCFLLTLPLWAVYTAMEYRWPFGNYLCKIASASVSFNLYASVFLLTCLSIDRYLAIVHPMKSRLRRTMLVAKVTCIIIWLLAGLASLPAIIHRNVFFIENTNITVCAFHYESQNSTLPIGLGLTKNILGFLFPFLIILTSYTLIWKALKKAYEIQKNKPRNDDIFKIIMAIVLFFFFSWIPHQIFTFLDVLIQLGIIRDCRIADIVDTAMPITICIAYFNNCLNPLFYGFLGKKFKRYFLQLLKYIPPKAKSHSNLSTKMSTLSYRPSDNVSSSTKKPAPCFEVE

[3] = biological target: Neuronal acetylcholine receptor subunit alpha-4 (Homo sapiens, UniProt P43681)
Glucocorticoid receptor = biological target: T2, Glucocorticoid receptor (Homo sapiens, UniProt P04150)
T2 sequence (P04150 whole entry): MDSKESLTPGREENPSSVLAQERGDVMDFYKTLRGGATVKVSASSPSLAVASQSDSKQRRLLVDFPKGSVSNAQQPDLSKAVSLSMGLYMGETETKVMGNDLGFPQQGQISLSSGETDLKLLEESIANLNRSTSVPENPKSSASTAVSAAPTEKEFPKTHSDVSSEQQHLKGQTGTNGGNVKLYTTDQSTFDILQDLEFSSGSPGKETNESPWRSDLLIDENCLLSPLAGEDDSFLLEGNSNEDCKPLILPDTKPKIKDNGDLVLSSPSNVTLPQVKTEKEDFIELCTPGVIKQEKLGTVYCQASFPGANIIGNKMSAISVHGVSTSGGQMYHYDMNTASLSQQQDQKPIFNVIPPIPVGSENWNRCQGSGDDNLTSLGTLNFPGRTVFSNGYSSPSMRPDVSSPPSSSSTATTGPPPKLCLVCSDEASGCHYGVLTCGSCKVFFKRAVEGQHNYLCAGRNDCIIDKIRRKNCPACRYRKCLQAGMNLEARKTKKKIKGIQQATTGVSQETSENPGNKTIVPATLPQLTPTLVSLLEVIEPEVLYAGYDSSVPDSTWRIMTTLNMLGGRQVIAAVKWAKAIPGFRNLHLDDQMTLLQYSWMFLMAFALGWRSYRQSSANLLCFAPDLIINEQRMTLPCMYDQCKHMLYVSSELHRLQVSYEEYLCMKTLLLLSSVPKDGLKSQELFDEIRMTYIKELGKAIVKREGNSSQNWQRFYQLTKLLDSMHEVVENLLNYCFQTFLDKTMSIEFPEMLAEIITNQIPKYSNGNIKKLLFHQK

[4] = biological target: T3, Alpha-1A adrenergic receptor (Homo sapiens, UniProt P35348)
T3 sequence (P35348 whole entry): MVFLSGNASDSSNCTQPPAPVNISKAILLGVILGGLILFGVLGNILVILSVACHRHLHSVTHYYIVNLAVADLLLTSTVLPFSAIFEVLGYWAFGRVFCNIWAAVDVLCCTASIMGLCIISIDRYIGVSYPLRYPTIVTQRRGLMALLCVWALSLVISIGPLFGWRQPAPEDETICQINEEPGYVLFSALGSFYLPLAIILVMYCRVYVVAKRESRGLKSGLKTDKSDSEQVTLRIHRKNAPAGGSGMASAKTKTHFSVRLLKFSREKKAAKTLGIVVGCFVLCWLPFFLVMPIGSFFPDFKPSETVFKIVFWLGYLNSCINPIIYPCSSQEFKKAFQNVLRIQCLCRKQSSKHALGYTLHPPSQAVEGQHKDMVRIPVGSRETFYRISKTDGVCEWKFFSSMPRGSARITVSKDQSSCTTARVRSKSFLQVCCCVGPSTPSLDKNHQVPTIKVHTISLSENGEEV

Mu-type opioid receptor = Mu-type opioid receptor (Homo sapiens, UniProt P35372)
Progesterone receptor = biological target: T4, Progesterone receptor (Homo sapiens, UniProt P06401); format: functional
T4 sequence (P06401 whole entry): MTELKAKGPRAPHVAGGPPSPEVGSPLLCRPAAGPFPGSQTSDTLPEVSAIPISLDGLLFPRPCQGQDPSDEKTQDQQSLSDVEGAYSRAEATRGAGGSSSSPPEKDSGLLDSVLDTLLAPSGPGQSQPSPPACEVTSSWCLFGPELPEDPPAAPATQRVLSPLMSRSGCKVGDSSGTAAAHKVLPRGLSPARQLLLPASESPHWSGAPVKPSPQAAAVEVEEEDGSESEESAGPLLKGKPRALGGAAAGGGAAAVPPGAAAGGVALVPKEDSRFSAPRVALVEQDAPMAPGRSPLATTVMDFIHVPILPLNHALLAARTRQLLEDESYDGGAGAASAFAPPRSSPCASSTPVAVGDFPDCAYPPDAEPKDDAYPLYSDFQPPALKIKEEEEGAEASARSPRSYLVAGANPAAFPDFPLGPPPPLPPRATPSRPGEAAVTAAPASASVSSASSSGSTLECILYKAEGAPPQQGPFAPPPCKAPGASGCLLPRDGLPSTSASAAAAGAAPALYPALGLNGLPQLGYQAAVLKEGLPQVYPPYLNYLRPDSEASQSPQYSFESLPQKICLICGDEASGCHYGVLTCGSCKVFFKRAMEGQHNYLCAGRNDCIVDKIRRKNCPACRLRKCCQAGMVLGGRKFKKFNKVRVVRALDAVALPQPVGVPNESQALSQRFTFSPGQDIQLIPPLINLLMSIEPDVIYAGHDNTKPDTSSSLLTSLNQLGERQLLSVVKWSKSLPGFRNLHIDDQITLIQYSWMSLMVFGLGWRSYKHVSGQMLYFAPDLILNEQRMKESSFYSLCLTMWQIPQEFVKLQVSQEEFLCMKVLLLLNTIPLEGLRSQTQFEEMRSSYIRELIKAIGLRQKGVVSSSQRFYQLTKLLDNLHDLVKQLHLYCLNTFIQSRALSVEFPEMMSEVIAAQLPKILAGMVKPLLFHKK

[5] = biological target: Muscarinic acetylcholine receptor M3 (Homo sapiens, UniProt P20309)
Further: assay procedure not described here.

Muscarinic acetylcholine receptor M3, sequence (P20309 whole entry): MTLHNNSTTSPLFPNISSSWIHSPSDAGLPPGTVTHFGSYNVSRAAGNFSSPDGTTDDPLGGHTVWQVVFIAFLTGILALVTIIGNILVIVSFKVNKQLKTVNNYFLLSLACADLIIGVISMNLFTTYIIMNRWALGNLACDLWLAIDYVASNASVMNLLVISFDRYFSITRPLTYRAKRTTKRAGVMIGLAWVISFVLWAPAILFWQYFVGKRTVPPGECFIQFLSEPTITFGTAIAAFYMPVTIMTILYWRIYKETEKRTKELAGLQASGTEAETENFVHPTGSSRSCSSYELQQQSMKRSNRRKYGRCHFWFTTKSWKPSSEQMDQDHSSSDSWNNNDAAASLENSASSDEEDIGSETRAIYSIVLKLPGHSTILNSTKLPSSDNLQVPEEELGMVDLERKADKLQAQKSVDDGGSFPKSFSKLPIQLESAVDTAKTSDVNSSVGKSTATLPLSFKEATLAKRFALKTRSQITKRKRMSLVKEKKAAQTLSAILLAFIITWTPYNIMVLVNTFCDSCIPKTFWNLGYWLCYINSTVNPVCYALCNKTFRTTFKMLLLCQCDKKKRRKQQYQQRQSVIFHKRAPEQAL
Beta-2 adrenergic receptor, sequence (P07550 whole entry): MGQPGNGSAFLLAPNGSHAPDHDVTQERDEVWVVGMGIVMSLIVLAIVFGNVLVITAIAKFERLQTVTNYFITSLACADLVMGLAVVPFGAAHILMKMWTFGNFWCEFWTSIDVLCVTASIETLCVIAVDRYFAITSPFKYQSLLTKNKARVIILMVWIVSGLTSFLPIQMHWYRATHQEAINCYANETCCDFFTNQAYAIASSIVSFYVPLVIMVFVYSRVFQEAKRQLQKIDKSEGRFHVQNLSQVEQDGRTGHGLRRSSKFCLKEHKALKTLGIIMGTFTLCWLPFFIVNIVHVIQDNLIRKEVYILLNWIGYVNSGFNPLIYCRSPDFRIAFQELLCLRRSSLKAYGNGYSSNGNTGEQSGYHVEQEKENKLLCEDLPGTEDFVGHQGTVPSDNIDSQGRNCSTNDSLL
Mu-type opioid receptor, sequence (P35372 whole entry): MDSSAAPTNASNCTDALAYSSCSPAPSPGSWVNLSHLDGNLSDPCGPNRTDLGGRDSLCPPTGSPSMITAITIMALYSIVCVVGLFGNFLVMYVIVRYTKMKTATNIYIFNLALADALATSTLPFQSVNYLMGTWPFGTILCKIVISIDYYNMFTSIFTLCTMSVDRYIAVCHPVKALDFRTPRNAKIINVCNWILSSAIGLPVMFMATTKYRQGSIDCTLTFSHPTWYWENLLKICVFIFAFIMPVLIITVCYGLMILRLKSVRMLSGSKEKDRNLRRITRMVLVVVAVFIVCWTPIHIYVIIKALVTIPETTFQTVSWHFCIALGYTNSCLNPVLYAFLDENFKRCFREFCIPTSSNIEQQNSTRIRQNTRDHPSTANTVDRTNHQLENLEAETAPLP
Neuronal acetylcholine receptor subunit alpha-4, sequence (P43681 whole entry): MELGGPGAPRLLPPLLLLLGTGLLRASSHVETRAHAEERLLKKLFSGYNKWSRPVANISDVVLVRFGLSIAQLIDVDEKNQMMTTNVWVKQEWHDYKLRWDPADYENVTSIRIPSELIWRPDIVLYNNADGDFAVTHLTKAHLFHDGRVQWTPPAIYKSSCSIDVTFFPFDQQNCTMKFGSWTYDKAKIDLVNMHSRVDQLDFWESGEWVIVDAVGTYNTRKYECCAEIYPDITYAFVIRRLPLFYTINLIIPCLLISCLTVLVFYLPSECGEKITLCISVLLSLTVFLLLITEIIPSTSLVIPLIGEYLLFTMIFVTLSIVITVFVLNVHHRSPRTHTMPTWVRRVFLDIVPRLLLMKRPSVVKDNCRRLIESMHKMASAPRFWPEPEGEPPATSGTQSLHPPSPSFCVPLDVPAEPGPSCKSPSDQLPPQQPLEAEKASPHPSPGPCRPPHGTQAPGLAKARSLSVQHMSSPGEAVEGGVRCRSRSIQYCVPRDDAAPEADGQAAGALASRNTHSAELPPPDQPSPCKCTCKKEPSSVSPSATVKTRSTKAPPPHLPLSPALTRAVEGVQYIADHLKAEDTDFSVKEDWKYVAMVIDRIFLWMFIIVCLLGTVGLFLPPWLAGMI

| Compound | AC50 [1] [µM] | AC50 [2] [µM] | AC50 [3] [µM] | AC50 (Glucocorticoid receptor) [µM] | AC50 [4] [µM] | AC50 (Mu-type opioid receptor) [µM] | AC50 (Progesterone receptor) [µM] | AC50 [5] [µM] |
| --- | --- | --- | --- | --- | --- | --- | --- | --- |
| CN(CCCN1c2ccccc2CCc2ccccc21)CC(=O)c1ccc(Cl)cc1 [LOFEPRAMINE] | 20 | > 30 | > 30 | > 30 |  |  |  |  |
| CC1=NN(c2ccccc2)C(=O)C1 [EDARAVONE] |  |  |  |  | > 30 |  |  |  |
| Nc1nc(-n2cc(C(=O)O)c(=O)c3cc(F)c(N4CC(O)C4)c(Cl)c32)c(F)cc1F [DELAFLOXACIN] |  |  |  |  | > 30 |  |  |  |
| CN(C)CCCN1c2ccccc2Sc2ccccc21 [PROMAZINE] | 7.6 | > 10 |  |  |  | 6.5 |  |  |
| O=C(O)CCn1c2c(c3ccccc31)C[C@H](NS(=O)(=O)c1ccc(F)cc1)CC2 [RAMATROBAN] | > 30 | > 30 | > 30 | > 30 |  | > 30 | > 30 | > 30 |
| NS(=O)(=O)c1cc(Cl)c(Cl)c(S(N)(=O)=O)c1 [DICHLORPHENAMIDE] | > 10 | > 10 | > 10 | > 10 |  | > 30 | > 10 | > 30 |
| O=C(Nc1ccccc1)OCC(CN1CCCCC1)OC(=O)Nc1ccccc1 (centres undefined) [DIPERODON] | > 10 | > 30 |  | > 30 |  | 1.8 |  | > 10 |
| Cn1cc[nH]c1=S [METHIMAZOLE] |  |  |  |  | > 30 |  |  |  |
| CN1C(=O)N(C)C2C1N(C)C(=O)N2C (centres undefined) [MEBICAR] |  |  |  |  | > 30 |  |  | > 30 |
| CN(C/C=C/c1ccccc1)Cc1cccc2ccccc12 [NAFTIFINE] | > 30 | > 30 | > 10 | > 30 |  | > 30 | > 30 | > 30 |
| NS(=O)(=O)c1cc2c(cc1Cl)NC(CC1CCCC1)NS2(=O)=O (centres undefined) [CYCLOPENTHIAZIDE] |  |  |  |  | > 30 |  |  | > 30 |
| N/N=c1/cc2c(n[nH]1)CCN(C(=O)c1ccccc1)C2 [ENDRALAZINE] |  |  |  |  | > 30 |  |  | > 30 |
| O=C(O)c1cccc(-c2noc(-c3ccccc3F)n2)c1 | > 30 |  | > 10 |  |  | > 30 |  |  |
| CC(=O)N(CC(O)CO)c1c(I)c(C(=O)NCC(O)CO)c(I)c(C(=O)NCC(O)CO)c1I (centres undefined) [IOHEXOL] | > 30 | > 30 | > 10 |  |  | > 30 |  | > 30 |
| N[C@@H](CSCC(=O)O)C(=O)O [CARBOCYSTEINE] | > 30 | > 30 | > 30 |  |  |  | > 30 | > 30 |
| O=P(O)(O)C(O)(Cc1cccnc1)P(=O)(O)O [RISEDRONIC ACID] | > 30 | > 30 | > 30 | > 30 |  | > 30 | > 30 |  |

| Compound | AC50 [1] [µM] | AC50 [2] [µM] | AC50 [3] [µM] | AC50 (Glucocorticoid receptor) [µM] | AC50 [4] [µM] | AC50 (Mu-type opioid receptor) [µM] | AC50 (Progesterone receptor) [µM] | AC50 [5] [µM] |
| --- | --- | --- | --- | --- | --- | --- | --- | --- |
| C=C1C[C@@H]2[C@H](CC[C@]3(C)C(=O)CC[C@@H]23)[C@@]2(C)C=CC(=O)C=C12 [EXEMESTANE] | > 10 | > 30 | > 10 |  |  | > 30 |  | > 30 |
| Nc1ccc(/N=N/c2ccccc2)c(N)n1 [PHENAZOPYRIDINE] |  |  |  |  | 23.4 |  |  | 3.6 |
| NC(=O)c1cccc2cn(-c3ccc([C@@H]4CCCNC4)cc3)nc12 [NIRAPARIB] |  |  |  |  | 29.4 |  |  |  |
| CC(C(O)c1ccc(O)cc1)N1CCC(Cc2ccccc2)CC1 (centres undefined) [IFENPRODIL] | > 30 | > 30 | > 30 | > 30 |  |  |  | > 30 |
| CC(C)(N)Cc1ccc(Cl)cc1 [CHLORPHENTERMINE] | > 10 | > 30 | 10 |  |  | > 30 |  | > 30 |
| CC(=O)O[C@]1(C(C)=O)CC[C@H]2[C@@H]3C[C@H](C)C4=CC(=O)CC[C@]4(C)[C@H]3CC[C@@]21C [MEDROXYPROGESTERONE ACETATE] |  | > 30 | > 30 | 0.015 |  |  |  |  |
| NS(=O)(=O)c1cc(-c2nnn[nH]2)c(NCc2cccs2)cc1Cl [AZOSEMIDE] | > 30 | > 30 | > 30 | > 30 |  |  | > 30 | > 30 |
| CC(C)=CCC1C(=O)N(c2ccccc2)N(c2ccccc2)C1=O [FEPRAZONE] |  |  |  |  | > 30 |  |  |  |
| O=C1CCC(N2C(=O)c3ccccc3C2=O)C(=O)N1 (centres undefined) [THALIDOMIDE] | > 10 | > 30 |  | > 30 |  | > 30 |  |  |
| C[N+](C)(C)CC(=O)O [BETAINE] | > 30 | > 30 | > 30 |  |  |  | > 30 | > 30 |
| CCCC(=O)N1CCCN(c2nc(N)c3cc(OC)c(OC)cc3n2)CC1 [BUNAZOSIN] |  | > 30 | > 30 |  |  |  | > 30 | > 30 |
| CC(=O)N[C@H]1[C@H]([C@H](O)[C@H](O)CO)OC(C(=O)O)=C[C@@H]1N=C(N)N [ZANAMIVIR] | > 30 | > 30 | > 30 | > 30 |  | > 30 | > 30 | > 30 |
| CN(C)[C@@H]1C(O)=C(C(N)=O)C(=O)[C@@]2(O)C(O)=C3C(=O)c4c(O)ccc(Cl)c4[C@@H](O)[C@H]3C[C@@H]12 [DEMECLOCYCLINE] | > 10 | > 10 | > 10 | > 30 |  | > 30 | > 30 | > 30 |
| C[N+](C)(C)CCOC(N)=O [CARBAMOYLCHOLINE] | > 10 | > 10 | > 10 |  |  | > 30 | > 10 |  |
| CS(=O)(=O)Nc1cc2occ(NC=O)c(=O)c2cc1Oc1ccccc1 [IGURATIMOD] |  |  |  |  |  |  | > 30 |  |
| CC(C)NCC1CCc2cc(CO)c([N+](=O)[O-])cc2N1 (centres undefined) [OXAMNIQUINE] | > 10 | > 10 | > 10 | > 10 |  | > 30 | > 10 | > 30 |
